Measurements published in patent publication US5096909A, “Fucosidase inhibitor” (Monsanto Company, priority 1990, dated 1992).

Tests used:
[1] = test system: N-acetyl-β-D-hexosaminidase; assay: Specificity: inhibition of other glycosidases in human liver extract at 1 mM, N-acetyl-β-D-hexosaminidase; assay type: biochemical; conditions: 4-umbelliferyl glycoside substrate 0.5 mM, optimal pH
Description: Tissue Post-mortem human liver, which had been stored at -20° C. until required was homogenized in deionized water (50%, w/v) in a Potter-Elvehjem homogenizer and then centrifuged at 37,000 g for 30 min in an MSE 18 centrifuge. The resultant supernatant was used as the source of human glycosidases. A lyophilized extract of liver from Charonia lampas was obtained from Seikagaku Kogyo Co., Japan for the isolation of α-L-fucosidase by the published procedure of Iijima and Egami, J. Biochem. 70, 75-78 (1971).
Enzyme Assays The glycosidase activities in an extract of human liver were assayed by using the appropriate fluorigenic 4-umbelliferyl glycoside substrate (Koch-Light, Haverhill, Suffolk, U.K.) with a concentration of 0.5 mM at the optimal pH for each enzyme [Burditt et al., Biochem. J. 189, 467-473 (1980)]. The specificity of the inhibitors was determined by assaying the glycosidases in the presence of and absence of a 1 mM solution of each compound. The nature of the inhibition of human α-L-fucosidase, the value of Ki determined by using the Dixon graphical procedure and the effect of pH on the inhibition were investigated as described previously by Al Daher et al., Biochem. J. 258, 613-615 (1989). […]

[2] = test system: mammalian α-L-fucosidases; conditions: cited from earlier work
pKa (Table 1) = assay type: physicochemical
[3] = test system: human immunodeficiency virus; conditions: cited from earlier work
α-glucosidase = conditions: cited from earlier work
digestive α-glucosidase = conditions: cited from earlier work

Question: With C[C@@H]1NC[C@@H](O)[C@H](O)[C@@H]1O [DFJ, 1,5-Dideoxy-1,5-imino-L-fucitol] as the compound, how does the “Other specificities (% inhibition at 1 mM): N-acetyl-β-D-hexosaminidase” value [1] read?
Answer: 59%

Question: What about the “inhibition of a number of mammalian α-L-fucosidases” value [2] of the same compound?
Answer: very powerful and highly specific inhibitor of a number of mammalian α-L-fucosidases

Question: What about the pKa (pKa (Table 1)) of the same compound?
Answer: 8.4

Question: Which “inhibition of human immunodeficiency virus synctium formation” value ([3]; syncytium formation) does the source give for OC[C@H]1NC[C@H](O)[C@@H](O)[C@@H]1O [deoxynojirimycin (1), deoxynojirimycin] here?
Answer: inhibit human immunodeficiency virus synctium formation

Question: And the “inhibition of human immunodeficiency virus replication” value ([3]; virus replication)?
Answer: inhibit human immunodeficiency virus synctium formation and virus replication

Question: What about the α-glucosidase inhibition (α-glucosidase) of the same compound?
Answer: α-glucosidase inhibitor

Question: Which “inhibition of digestive α-glucosidase activity” value (digestive α-glucosidase) does the source give for OC[C@H]1N[C@H](CO)[C@@H](O)[C@H](O)[C@H]1O [α-Homonojirimycin] here?
Answer: potent inhibitor of digestive α-glucosidase activity

Question: For C[C@H]1N[C@@H](CO)[C@@H](O)[C@H](O)[C@@H]1O [(6), 2,6-Imino-2,6,7-trideoxy-D-glycero-D-gluco-heptitol], which pKa (pKa (Table 1)) is on record?
Answer: 7.7
